The test concerns the target T1, Recombinant human LTC4 synthase (Homo sapiens, UniProt Q16873).
T1 construct: made in house; host or cells: Pichia pastoris ('Piccia pastoralis' [sic])
T1 sequence (Q16873 1-150): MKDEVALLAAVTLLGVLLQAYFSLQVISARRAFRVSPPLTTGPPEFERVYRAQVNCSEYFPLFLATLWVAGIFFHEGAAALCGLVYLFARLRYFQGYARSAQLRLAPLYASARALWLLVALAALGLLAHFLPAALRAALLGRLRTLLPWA
In words: LTC4 synthase in vitro assay (LTA4 to LTC4, HTRF detection). The class given is biochemical. The conditions noted are these: for inhibition at 10 µM: 5 min, total concentration of title compound in the assay 10 μM. The essentials: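 Purified recombinant human LTC4 synthase expressed in Pichia (0.5 μg/mL total protein) was preincubated with inhibitor at 10 μM final for 10 min at room temperature in PBS pH 7.4 with 5 mM GSH. LTA4 was then added at 2.5 μM final, and after 5 min at room temperature LTC4 was detected by HTRF.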

On to `CN(c1ccc(C(=O)c2ccc(Oc3ccccc3)c(C(=O)O)c2)nc1)c1cccc(C(F)(F)F)c1` [1:11, 5-{5-[(Methyl)(3-trifluoromethylphenyl)amino]picolinoyl}-2-phenoxybenzoic acid], for which the IC50 stood at 0.176 µM and the inhibition at 10 µM is 99%.
Turning to `CN(c1ccc(C(=O)c2ccc(Oc3ccccc3)c(C(=O)O)c2)nc1)c1ccc(F)c(F)c1` [1:16, 5-{5-[(3,4-Difluorophenyl)(methyl)amino]picolinoyl}-2-phenoxybenzoic acid], the 50% inhibitory concentration (IC50) is 0.387 µM and the inhibition at 10 µM stood at 98%.
For `CCCCOc1ccc(S(=O)(=O)Nc2ccc(C(=O)c3ccc(N(C)c4ccc(Cl)cc4)cn3)cc2C(=O)O)cc1` [4:2, 2-(4-Butoxyphenylsulfonamido)-5-{5-[(4-chlorophenyl)(methyl)amino]picolinoyl}-benzoic acid], the IC50 amounted to 0.023 µM. Also, the inhibition at 3 µM (compound concentration 3 μM) worked out at 100%.
As to `Cc1cn(-c2ccc(C(=O)c3ccc(N(C)c4ccc(Cl)cc4)cn3)cc2C(=O)O)c(-c2ccccc2)n1` [19:1, 5-{5-[(4-Chlorophenyl)(methyl)amino]picolinoyl}-2-(4-methyl-2-phenylimidazol-1-yl)benzoic acid], the IC50 is 0.235 µM.
Still for that read-out and setting: next, `COc1ccc(Nc2ccc(C(=O)c3ccc(N(C)c4ccc(Cl)cc4)cn3)cc2C(=O)O)cc1` [2:13, 5-{5-[(4-Chlorophenyl)(methyl)amino]picolinoyl}-2-(4-methoxyphenylamino)benzoic acid]: 0.16 µM.
